Results as given in patent US10040838B2, “CRHR2 peptide agonists and uses thereof” (JANSSEN PHARMACEUTICA NV, priority 2008, dated 2018).
Residues, ends and D or L forms follow the SMILES beside them. No end group written: not given here. *: point of attachment. Succinimide(1-Et,3-yl) = CCN1C(=O)CC(*)C1=O

Molecular target: T1, human CRHR2 (Homo sapiens, UniProt Q13324)
T1 construct: expressed in transfected cells
T1 sequence (Q13324 1-411): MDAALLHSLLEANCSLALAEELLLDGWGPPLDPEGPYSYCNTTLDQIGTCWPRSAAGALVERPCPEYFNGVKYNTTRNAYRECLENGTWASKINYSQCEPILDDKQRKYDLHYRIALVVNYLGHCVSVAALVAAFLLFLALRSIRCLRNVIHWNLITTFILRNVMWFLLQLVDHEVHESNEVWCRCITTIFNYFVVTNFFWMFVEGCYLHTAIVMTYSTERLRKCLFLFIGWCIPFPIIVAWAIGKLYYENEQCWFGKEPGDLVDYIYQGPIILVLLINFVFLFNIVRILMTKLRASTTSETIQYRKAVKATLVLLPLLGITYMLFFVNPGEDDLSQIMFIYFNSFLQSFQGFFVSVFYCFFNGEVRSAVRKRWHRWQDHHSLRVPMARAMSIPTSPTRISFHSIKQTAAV
Test: cAMP assay in h-CRHR2 transfected SK-N-MC cells
Format: cell-based
Conditions: for Log DR: Table 13, h-SCP control pA50 minus test compound pA50 within same assay batch
Outline: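 Intracellular cAMP was read by competition with [125I]-cAMP for an anti-cAMP antibody after HCl lysis of human CRHR2-transfected SK-N-MC cells. Cells had been exposed to peptide, 1 pM to 10 μM, for 60 min at 37 °C in IBMX (10 μM) buffer. A50 and pA50 came from Hill fits; Log DR was computed against h-SCP within each batch.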

CC[C@H](C)[C@H](NC(=O)[C@H](CCC(N)=O)NC(=O)[C@H](C)NC(=O)[C@H](CCSC)NC(=O)[C@H](CC(C)C)NC(=O)[C@H](Cc1c[nH]cn1)NC(=O)[C@H](C)NC(=O)[C@H](CSC1CC(=O)N(CC)C1=O)NC(=O)[C@H](C)NC(=O)[C@H](C)NC(=O)[C@H](C)NC(=O)[C@H](CCC(N)=O)NC(=O)[C@H](C)NC(=O)[C@H](CCCNC(=N)N)NC(=O)[C@H](CC(C)C)NC(=O)[C@H](CC(N)=O)NC(=O)[C@H](CCCCN)NC(=O)[C@H](C)NC(=O)[C@H](CCCCN)NC(=O)[C@H](C)NC(=O)[C@@H](NC(=O)[C@H](CC(N)=O)NC(=O)[C@H](Cc1ccccc1)NC(=O)[C@H](CC(C)C)NC(=O)[C@H](CC(C)C)NC(=O)[C@H](CC(N)=O)NC(=O)[C@H](CCSC)NC(=O)[C@@H](NC(=O)[C@H](CC(N)=O)NC(=O)[C@@H](NC(=O)[C@@H]1CCCN1C(=O)[C@@H](NC(=O)[C@H](CC(=O)O)NC(=O)[C@H](CC(C)C)NC(=O)[C@H](CO)NC(=O)[C@H](CC(C)C)NC(=O)[C@@H](NC(=O)[C@H](Cc1ccccc1)NC(=O)[C@H](CCCCN)NC(=O)[C@@H](N)[C@@H](C)O)[C@@H](C)O)C(C)C)[C@@H](C)O)[C@@H](C)CC)[C@@H](C)CC)C(N)=O (stereo partly drawn) [SEQ ID NO: 44, TKFTLSLDVPTNIMNLLFNIAKAKNLRAQAAAC(-NES)AH LMAQI-NH2] (H-TKFTLSLDVPTNIMNLLFNIAKAKNLRAQAAAC(Succinimide(1-Et,3-yl))AHLMAQI-NH2; N-terminus assumed)
Log DR: ~1.97

CC[C@H](C)[C@H](NC(=O)[C@H](CCC(N)=O)NC(=O)[C@H](C)NC(=O)[C@H](CCSC)NC(=O)[C@H](CC(C)C)NC(=O)[C@H](Cc1c[nH]cn1)NC(=O)[C@H](C)NC(=O)[C@H](CC(N)=O)NC(=O)[C@H](C)NC(=O)[C@H](C)NC(=O)[C@H](C)NC(=O)[C@H](CCC(N)=O)NC(=O)[C@H](C)NC(=O)[C@H](CCCNC(=N)N)NC(=O)[C@H](CC(C)C)NC(=O)[C@H](CC(N)=O)NC(=O)[C@H](CCCCN)NC(=O)[C@H](C)NC(=O)[C@H](CCCCN)NC(=O)[C@H](C)NC(=O)[C@@H](NC(=O)[C@H](CC(N)=O)NC(=O)[C@H](Cc1ccccc1)NC(=O)[C@H](CC(C)C)NC(=O)[C@H](CSC1CC(=O)N(CC)C1=O)NC(=O)[C@H](CC(N)=O)NC(=O)[C@H](CCSC)NC(=O)[C@@H](NC(=O)[C@H](CC(N)=O)NC(=O)[C@@H](NC(=O)[C@@H]1CCCN1C(=O)[C@@H](NC(=O)[C@H](CC(=O)O)NC(=O)[C@H](CC(C)C)NC(=O)[C@H](CO)NC(=O)[C@H](CC(C)C)NC(=O)[C@@H](NC(=O)[C@H](Cc1ccccc1)NC(=O)[C@H](CCCCN)NC(=O)[C@@H](N)[C@@H](C)O)[C@@H](C)O)C(C)C)[C@@H](C)O)[C@@H](C)CC)[C@@H](C)CC)C(N)=O (stereo partly drawn) [SEQ ID NO: 54, TKFTL SLDVP TNIMN C(-NES)LFNI AKAKN LRAQA AANAH LMAQI-NH2] (H-TKFTLSLDVPTNIMNC(Succinimide(1-Et,3-yl))LFNIAKAKNLRAQAAANAHLMAQI-NH2; N-terminus assumed)
Log DR: −0.08

TKFTLSLDVPTNIMNLLFNIAKAKNLRAQAAANAHCMAQI-NH2 [SEQ ID NO: 37, TKFTLSLDVPTNIMNLLFNIAKAKNLRAQAAANAHCMAQI-NH2]
Log DR: 1.05

TKFTLSLDVPTNIMNLLFNIAKAKNLRAQCAANAHLMAQI-NH2 [SEQ ID NO: 31, TKFTLSLDVPTNIMNLLFNIAKAKNLRAQCAANAHLMAQI-NH2]
Log DR: 1.61

TKFTLSLDCPTNIMNLLFNIAKAKNLRAQAAANAHLMAQI-NH2 [SEQ ID NO: 10, TKFTLSLDCPTNIMNLLFNIAKAKNLRAQAAANAHLMAQI-NH2]
Log DR: 1.30

TKFTLSLDVPTNIMNLLFNCAKAKNLRAQAAANAHLMAQI-NH2 [SEQ ID NO: 21, TKFTLSLDVPTNIMNLLFNCAKAKNLRAQAAANAHLMAQI-NH2]
Log DR: 0.77

TKFTLSLDVPTNIMNLCFNIAKAKNLRAQAAANAHLMAQI-NH2 [SEQ ID NO: 18, TKFTLSLDVPTNIMNLCFNIAKAKNLRAQAAANAHLMAQI-NH2]
Log DR: 1.11

TKFTLSLDVPTNIMNLLFNIAKAKNLRAQAAANCHLMAQI-NH2 [SEQ ID NO: 35, TKFTLSLDVPTNIMNLLFNIAKAKNLRAQAAANCHLMAQI-NH2]
Log DR: 0.70

SLDVPTNIMNLLFNIAKAKNLRAQAAANAHLMAQI-NH2 [SEQ ID NO: 110, SLDVPTNIMNLLFNIAKAKNLRAQAAANAHLMAQI-NH2]
Kd (tested as antagonists of h-SCP at 10 μM, read-out: receptor affinity (KA)): < 10 µM

TKFTLSLDVCTNIMNLLFNIAKAKNLRAQAAANAHLMAQI-NH2 [SEQ ID NO: 11, TKFTLSLDVCTNIMNLLFNIAKAKNLRAQAAANAHLMAQI-NH2]
Log DR: 0.82

CKFTLSLDVPTNIMNLLFNIAKAKNLRAQAAANAHLMAQI-NH2 [SEQ ID NO: 2, CKFTLSLDVPTNIMNLLFNIAKAKNLRAQAAANAHLMAQI-NH2]
Log DR: 0.72

TKFTLSLDVPTNIMNLLFNIAKAKNLRAQAAACAHLMAQI-NH2 [SEQ ID NO: 34, TKFTLSLDVPTNIMNLLFNIAKAKNLRAQAAACAHLMAQI-NH2]
Log DR: >3.19

TKFTLSLDVPTNIMNLLFNIACAKNLRAQAAANAHLMAQI-NH2 [SEQ ID NO: 23, TKFTLSLDVPTNIMNLLFNIACAKNLRAQAAANAHLMAQI-NH2]
Log DR: 1.13

TKFTLSLDVPTNIMNLLFNIAKAKNLRAQAACNAHLMAQI-NH2 [SEQ ID NO: 33, TKFTLSLDVPTNIMNLLFNIAKAKNLRAQAACNAHLMAQI-NH2]
Log DR: 0.45

CC[C@H](C)[C@H](NC(=O)[C@H](CCC(N)=O)NC(=O)[C@H](C)NC(=O)[C@H](CCSC)NC(=O)[C@H](CC(C)C)NC(=O)[C@H](Cc1c[nH]cn1)NC(=O)[C@H](C)NC(=O)[C@H](CC(N)=O)NC(=O)[C@H](C)NC(=O)[C@H](C)NC(=O)[C@H](C)NC(=O)[C@H](CCC(N)=O)NC(=O)[C@H](C)NC(=O)[C@H](CCCNC(=N)N)NC(=O)[C@H](CC(C)C)NC(=O)[C@H](CSC1CC(=O)N(CC)C1=O)NC(=O)[C@H](CCCCN)NC(=O)[C@H](C)NC(=O)[C@H](CCCCN)NC(=O)[C@H](C)NC(=O)[C@@H](NC(=O)[C@H](CC(N)=O)NC(=O)[C@H](Cc1ccccc1)NC(=O)[C@H](CC(C)C)NC(=O)[C@H](CC(C)C)NC(=O)[C@H](CC(N)=O)NC(=O)[C@H](CCSC)NC(=O)[C@@H](NC(=O)[C@H](CC(N)=O)NC(=O)[C@@H](NC(=O)[C@@H]1CCCN1C(=O)[C@@H](NC(=O)[C@H](CC(=O)O)NC(=O)[C@H](CC(C)C)NC(=O)[C@H](CO)NC(=O)[C@H](CC(C)C)NC(=O)[C@@H](NC(=O)[C@H](Cc1ccccc1)NC(=O)[C@H](CCCCN)NC(=O)[C@@H](N)[C@@H](C)O)[C@@H](C)O)C(C)C)[C@@H](C)O)[C@@H](C)CC)[C@@H](C)CC)C(N)=O (stereo partly drawn) [SEQ ID NO: 49, TKFTLSLDVPTNIMNLLFNIAKAKC(-NES) LRAQA AANAH LMAQI-NH2] (H-TKFTLSLDVPTNIMNLLFNIAKAKC(Succinimide(1-Et,3-yl))LRAQAAANAHLMAQI-NH2; N-terminus assumed)
Log DR: 0.11

TKFTLSLCVPTNIMNLLFNIAKAKNLRAQAAANAHLMAQI-NH2 [SEQ ID NO: 9, TKFTLSLCVPTNIMNLLFNIAKAKNLRAQAAANAHLMAQI-NH2]
Log DR: 1.89

TKFTLSLDVPTNIMNLLFNIAKCKNLRAQAAANAHLMAQI-NH2 [SEQ ID NO: 24, TKFTLSLDVPTNIMNLLFNIAKCKNLRAQAAANAHLMAQI-NH2]
Log DR: 0.74

TKFTLSLDVPTNIMNLLFNIAKAKNCRAQAAANAHLMAQI-NH2 [SEQ ID NO: 27, TKFTLSLDVPTNIMNLLFNIAKAKNCRAQAAANAHLMAQI-NH2]
Log DR: 0.76

TKFTLSLDVPTNIMNLLFNIAKAKNLRAQAAANACLMAQI-NH2 [SEQ ID NO: 36, TKFTLSLDVPTNIMNLLFNIAKAKNLRAQAAANACLMAQI-NH2]
Log DR: 0.42

TKFTLSLDVPTNIMCLLFNIAKAKNLRAQAAANAHLMAQI-NH2 [SEQ ID NO: 16, TKFTLSLDVPTNIMCLLFNIAKAKNLRAQAAANAHLMAQI-NH2]
Log DR: 0.76

TKFTLSLDVPTNIMNLLCNIAKAKNLRAQAAANAHLMAQI-NH2 [SEQ ID NO: 19, TKFTLSLDVPTNIMNLLCNIAKAKNLRAQAAANAHLMAQI-NH2]
Log DR: 1.67

TKFTLSLDVPTNCMNLLFNIAKAKNLRAQAAANAHLMAQI-NH2 [SEQ ID NO: 14, TKFTLSLDVPTNCMNLLFNIAKAKNLRAQAAANAHLMAQI-NH2]
Log DR: >2

TKFTLSLDVPTNIMNLLFNIAKAKNLRAQACANAHLMAQI-NH2 [SEQ ID NO: 32, TKFTLSLDVPTNIMNLLFNIAKAKNLRAQACANAHLMAQI-NH2]
Log DR: 0.11

TKFTLSLDVPTNIMNLLFNIAKAKNLRAQAAANAHLMAQC-NH2 [SEQ ID NO: 41, TKFTLSLDVPTNIMNLLFNIAKAKNLRAQAAANAHLMAQC-NH2]
Log DR: 2.07
